For data set [1], the system named is gentamicin entry into hair cells. Briefly: Gentamicin-conjugated Texas Red (GTTR) uptake imaging. The data set is classed as in vivo, zebrafish (Danio rerio). The conditions noted are these: protective drug at optimal dose; 50 uM GTTR for 3 min. An excerpt:
Gentamicin-conjugated Texas Red Imaging. […] Fish were anesthetized with MS222 and transferred to double wholemount slides for imaging using fluorescence microscopy on an automated stage (Marianas imaging system, Intelligent Imaging Innovations) with a Zeiss Axiovert 200M inverted microscope (Carl Zeiss). Each image contained a z-stack encompassing 2-3 neuromasts as determined by viewing under brightfield illumination. Each fish was imaged once and 5 fish were imaged for each treatment group. Control fish were treated with EM only (mock-treated) or with 3 min of 50 uM GTTR only.
GTTR Image analysis. […] Then 2-3 neuromasts per image were traced and converted to a mask field “Mask 1”. […] Then Boolean addition was used to create the neuromast mask (NM) by taking “Mask1” AND thresholded segment and the background mask (BG) by taking “Mask2” AND thresholded segment. Mean intensity, standard deviation of intensity, sum intensity and volume in voxels were calculated for NM and BG. To create an index of intensity, NM/BG was calculated for each fish and values for mock-treated fish were subtracted and multiplied by 100 to obtain “% intensity above background”.

The test system of data set [2] is hair cells of the zebrafish lateral line. Briefly: Dose response testing: protection of zebrafish lateral line hair cells against toxin-induced hair cell death (DASPEI neuromast scoring). The data set is classed as in vivo, zebrafish (Danio rerio). The protocol:
Animal care. Wildtype Larval zebrafish (Danio rerio) were produced via group matings of adult fish. […] Beginning at 4 days post-fertilization (dpf), fish were fed live paramecia or rotifers daily. Experiments were performed using 5 or 6 dpf larvae. The University of Washington Animal Care and Use Committee approved of the animal procedures described here.
Dose response testing. Drug screen “hits” were tested to determine minimum concentrations of drug and maximum concentrations of toxin that confer protection against hair cell death. All “hits” were tested against all four hair cell toxins regardless of whether a given “hit” was positive with a specific toxin in the screen. 5 or 6 dpf larvae were transferred to 6-well Corning Netwell baskets and placed in 6-well plates (Fisher Scientific) in EM with approximately 10 fish per basket. This allowed for easy transfer between treatment media. Drug and toxins were made up in 7 ml of EM. Larvae were pretreated for one hour in a dose of protective drug followed by cotreatment in protective drug and hair cell toxin. […] Then larvae were rinsed 4× and anesthetized with MS222. Larvae were transferred to glass depression slides and viewed on a Leica epifluorescent microscope with a DASPEI filter (Chroma Technologies, Brattleboro Vt.). […] To find minimum protective concentrations, doses of protective drug tested were 0, 0.5, 1, 5, 10, 50, 100 uM and toxin dose was held at the concentrations used for screening (see above). For those doses of putative protectants that killed the larvae, further doses were tested to determine if intermediate doses were optimal. For dose response curves finding maximum toxin dose at which protection occurs, dose of protective drug was held at previously determined optimal dose and toxin dose was varied as follows: […]

In a further data set the test system is bacteria. Briefly: Antibiotic efficacy of the ototoxic aminoglycoside in presence of protective drug. It counts as cell-based.
The subject of data set [3] is hair cells of the zebrafish lateral line. Briefly: Screen of BIOMOL FDA Approved Drug Library for protection against toxin-induced hair cell death (YO-PRO1). It counts as in vivo, zebrafish (Danio rerio). To be noted: 4 μg/ml library compound, 1 hr preincubation. The protocol:
Drug Library. BIOMOL's FDA Approved Drug Library (Enzo Life Sciences Inc., Plymouth Meeting, Pa., USA (formerly BIOMOL International, L.P.)) was used to screen zebrafish larvae for compounds that protect against toxin-induced hair cell death. The library consists of 640 drugs dissolved at 2 mg/ml in dimethyl sulfoxide (DMSO). The drugs were aliquoted into eight 96-well plates with 80 drugs per plate and stored at 4 C during initial screening and re-testing.
Screening. Larvae were prelabeled with 2 μM YO-PRO1 (Invitrogen, Carlsbad, Calif. USA; Y3603) in embryo medium for 30 min and then rinsed three times. […]
Concentrations and incubation times were chosen based on previously determined dose-response in order to achieve maximal hair cell death at the lowest concentration of toxin (Ou et al. 2007; Owens et al. 2009). […] After incubation in library drug and hair cell toxin, larvae were anesthetized with 0.001% MS222 (3-aminobenzoic acid ethyl ester methanesulfonate; Sigma) and immediately viewed using fluorescence microscopy on an automated stage (Marianas imaging system, Intelligent Imaging Innovations) using a Zeiss Axiovert 200M inverted microscope (Carl Zeiss). Fish were scored on a scale from 0 to 2 with 2 corresponding to mostly healthy hair cells and a 0 corresponding to mostly dead hair cells. […]

The test system is the same in data set [4]. The experiment in a line: Pretreatment experiments (1 hr, 15 min or no pretreatment before 200 uM neomycin). The conditions noted are these: for Pre-treatment time prior to aminoglycoside exposure giving greater effectiveness: zebrafish, in vivo. It counts as in vivo, zebrafish (Danio rerio). From the text:
Pretreatment experiments. […] Controls were mock treated or treated with neomycin only.

The test system of a further data set is sensory hair cells. The experiment in a line: Zebrafish model of protection of sensory hair cells against ototoxins (PROTO1). To be noted: in vivo.
Data set [5] has as its system hearing (threshold shift). The data set is classed as in vivo, rat. The conditions noted are these: rats; protectant 25 mg/kg intraperitoneally; kanamycin 25 mg/kg per day i.p. for two weeks. The protocol:
Rats were injected with 25 mg/kg per day (intraperitoneal) kanamycin for two weeks, a treatment that induces a hearing loss similar to that observed in humans following aminoglycoside treatment. At higher frequencies, the hearing loss observed in rats treated with kanamycin (without protectant) is a threshold shift of 50 dB and at mid-frequencies a hearing loss observed is 30-40 dB threshold shift.
The PROTO1 was administered intraperitoneally at a dose of 25 mg/kg. The PROTO1 was given as a 3.33 mg/mL solution in 1:1:2:16 (DMSO:Cremophor EL:EtOH:PBS).

For data set [6], the system named is cultured lung cancer cells. The experiment in a line: Inhibition of growth of cultured lung cancer cells in presence of protective drug (in vitro). The data set is classed as cell-based. To be noted: in vitro testing.
For a further data set, the system named is zebrafish hair cells. Briefly: Quinoline ring derivatives: pretreatment protection against neomycin-induced hair cell death (FIG. 1). It counts as in vivo. The conditions noted are these: 5 dpf zebrafish; 0, 10, 50, 100 or 200 μM pretreatment; 200 μM neomycin. How it is done: FIG. 1 is a bar graph depicting results of cinchonine pretreatment, which protects against neomycin-induced hair cell death. Five day post-fertilization zebrafish were pretreated with 0, 10, 50, 100 or 200 μM cinchonine prior to treatment with 200 μM neomycin. […] The negative control represents fish not exposed to neomycin. Data bars are mean hair cell survival from 8 to 10 fish. Error bars represent standard deviation from the mean.
Five day post-fertilization zebrafish were pretreated with 0, 10, 50, 100 or 200 μM cinchonine prior to treatment with 200 μM neomycin. […] The negative control represents fish not exposed to neomycin. Data bars are mean hair cell survival from 8 to 10 fish. Error bars represent standard deviation from the mean.

Data set [7] concerns hearing and vestibular function. The conditions noted are these: human, in vivo; cited from earlier work.

“Also recorded” adds a separate entry of the source. Counter-ions that a name gives are not always drawn.

`NC(=NCc1ccccc1)NC(=O)c1nc(Cl)c(N)nc1N` [Benzamil]: in [1], the “Uptake (whether gentamicin is able to enter cells in the presence of protective drug)” value (shortened to “Uptake”) is on record as “attenuate”.
As to `CCN(CC)CCCC(C)Nc1ccnc2cc(Cl)ccc12` (stereo not drawn) [Chloroquine diphosphate], in data set [2] (zebrafish, in vivo), the “Protection of sensory hair cells against gentamicin” value (from here on “Protection … against gentamicin”) is “protect against gentamicin”. In addition, the “Effect on antibiotic efficacy of the ototoxic aminoglycoside” value (“Effect on antibiotic efficacy” below) with bacteria is listed as “without diminishing the antibiotic efficacy”.
Turning to `CNCCC(Oc1ccc(C(F)(F)F)cc1)c1ccccc1` (stereo not drawn) [Fluoxetine HCl], the “Effect on antibiotic efficacy” value in the data set with bacteria is “without diminishing the antibiotic efficacy”. In addition, the “Uptake” value in data set [1] is “no block”.
With `O=C1NCN(c2ccccc2)C12CCN(CCCC(c1ccc(F)cc1)c1ccc(F)cc1)CC2` [Fluspirilene], the “Effect on antibiotic efficacy” value in the data set on bacteria was “without diminishing the antibiotic efficacy”. The “Uptake” value in data set [1] is “no block”.
For `CN(C)C(=O)C(CCN1CCC(O)(c2ccc(Cl)cc2)CC1)(c1ccccc1)c1ccccc1` [Loperamide], in data set [2] (zebrafish, in vivo), the “Protection … against gentamicin” value was “protect against gentamicin” and the “Protection of sensory hair cells against kanamycin” value is listed as “protect against kanamycin”. In the data set with bacteria, the “Effect on antibiotic efficacy” value was “without diminishing the antibiotic efficacy”. Also, in data set [1], the “Uptake” value is “no block”. Also, in [3], the “Protection in library screen against aminoglycosides (neomycin, gentamicin, kanamycin) and/or cisplatin” value is reported as “protects against all four toxins”.
On to `CSc1ccc2c(c1)C(N1CCN(C)CC1)Cc1ccccc1S2.O=C(O)/C=C\C(=O)O` (stereo not drawn) [Methiothepin maleate], for which the “Drug dose (optimal dose that confers protection against toxins)” value in [2] (5 or 6 dpf larvae, toxin dose held at screening concentration) amounted to 10 µM. Moreover, the “Protection … against gentamicin” value in data set [2] (zebrafish, in vivo) is given as “protect against gentamicin”. In the data set with bacteria, the “Effect on antibiotic efficacy” value was “without diminishing the antibiotic efficacy”. Moreover, in data set [4] (followed by 1 hr cotreatment with 200 uM neomycin), the “Pre-treat (necessary pretreatment time before toxin exposure for effective protection)” value was found to be 60 min. The “Pre-treatment time prior to aminoglycoside exposure giving greater effectiveness” value in data set [4] was found to be 60 min. Besides, the “Uptake” value in [1] is “no block”.
As for `CCN1CCc2c(sc(NC(=O)Nc3ccc(Cl)cc3)c2C(N)=O)C1` [PROTO1, 2-({[(4-chlorophenyl)amino]carbonyl}amino)-6-ethyl-4,5,6,7-tetrahydrothieno[2,3-c]pyridine-3-carboxamide], in the data set on sensory hair cells, the “Protection of sensory hair cells against ototoxins in the Zebrafish model” value was “shown to protect”. In [5], the “Protection against kanamycin-induced hearing loss” value is on record as “significant protection against hearing loss”.
`Fc1ccc([C@@H]2CCNC[C@H]2COc2ccc3c(c2)OCO3)cc1` [Paroxetine HCl]: in [2] (zebrafish, in vivo), the “Protection of sensory hair cells against cisplatin” value was “protective against cisplatin” and the “Protection … against gentamicin” value is “protect against gentamicin”. Further, the “Effect on inhibition of growth of cultured lung cancer cells” value in data set [6] is “alters inhibition of growth of some cultured lung cancer cells at some doses and not at others”. In the data set on bacteria, the “Effect on antibiotic efficacy” value is listed as “without diminishing the antibiotic efficacy”. Moreover, the “Uptake” value in data set [1] is reported as “attenuate”.
With `CC(COc1ccccc1)N(CCCl)Cc1ccccc1` (stereo not drawn) [Phenoxybenzamine HCl], the “Protection … against gentamicin” value in [2] (zebrafish, in vivo) is on record as “protect against gentamicin”. In addition, the “Effect on antibiotic efficacy” value in the data set with bacteria was “without diminishing the antibiotic efficacy”. Moreover, the “Pre-treatment time prior to aminoglycoside exposure giving greater effectiveness” value in [4] came to 15 min. In addition, in data set [1], the “Uptake” value is on record as “attenuate”.
For the molecule `CC(CCc1ccc(O)cc1)NCC(O)c1ccc(O)cc1` (stereo not drawn) [Ractopamine], in [2] (zebrafish, in vivo), the “Protection … against gentamicin” value is on record as “protect against gentamicin; also recorded: protected”, the “Protection of sensory hair cells against kanamycin” value is “protect against kanamycin; also recorded: protected” and the “Protection of sensory hair cells from neomycin” value is reported as “protected”. Further, the “Effect on antibiotic efficacy” value in the data set on bacteria is “without diminishing the antibiotic efficacy”. Also, in data set [1], the “Uptake” value is given as “block”.
For `O=C(c1ccc(OCCN2CCCCC2)cc1)c1c(-c2ccc(O)cc2)sc2cc(O)ccc12` [Raloxifene HCl], in data set [2] (zebrafish, in vivo), the “Protection … against gentamicin” value is recorded as “protect against gentamicin”. The “Effect on antibiotic efficacy” value with bacteria is on record as “without diminishing the antibiotic efficacy”. Further, in data set [1], the “Uptake” value is reported as “block”.
As for `CC/C(=C(\c1ccccc1)c1ccc(OCCN(C)C)cc1)c1ccccc1` [Tamoxifen citrate], the “Effect on antibiotic efficacy” value in the data set on bacteria is recorded as “without diminishing the antibiotic efficacy”. In data set [1], the “Uptake” value is “no block”.
Take `CN(C)CCOc1ccc(/C(=C(/CCCl)c2ccccc2)c2ccccc2)cc1` [Toremifene citrate]: the “Effect on antibiotic efficacy” value in the data set with bacteria was “without diminishing the antibiotic efficacy”.
`C=C[C@H]1C[N@@]2CC[C@H]1C[C@@H]2[C@@H](O)c1ccnc2ccccc12` [cinchonine]: the “Hair cell survival after neomycin with cinchonine pretreatment” value in the data set on zebrafish hair cells is on record as “increasing hair cell survival”.
Turning to `N.N.[Cl][Pt][Cl]` [cisplatin], the “High frequency hearing loss (>8 kHZ) incidence” value in data set [7] was at most 90%.
